Data as given in patent publication US7091185B2, “Periodic antimicrobial peptides” (Dow Global Technologies Inc., priority 2003, dated 2006).
Where two headings read alike, the source gives them in different places. Where no end group is shown, it is not given here.

Legend:
[1] = tested on: P. aeruginosa ATCC 15442 / Staph. aureus ATCC 6538; experiment: HMARQ biocidal testing; type: cell-based; conditions: summary of Table 6; peptides too small to span the membrane
Experimental: Biocide efficacy protocols were improved by reducing sample size, organizing the test material into an array format, implementing most probable number (MPN) quantitation and using multi-channel liquid handling equipment. We call the new method “high-throughput microanalysis and rapid quantitation” or “HMARQ.” HMARQ is directly applicable to current industrial efficacy tests such as multi-cycle preservation challenge or time course disinfection tests.
HMARQ is performed in a high throughput plate, such as 96-well microtiter plates. Typical sample volumes have been reduced down to 200 to 300 μL, but can be reduced further if desired. In these samples, no more than 10% of the total volume will be composed of the biocide and organism solution, and all non-matrix additions are normalized for all samples.
The sample matrix is first inoculated with the desired concentration of microorganisms. Inoculated sample matrix is then added to the 96-well assay block containing the biocide(s) under study. Each sample block contains biocide treated samples and untreated control samples (lacking biocide). Once the samples are prepared, the entire block of samples is mixed by vortexing until each sample is homogenous. In general, the study starts once mixing is complete, and samples are removed as required for the analysis. When Kill Time testing (rate of biocide activity) is performed, the microorganisms are added after biocide addition to the samples, allowing for rapid mixing and analysis.
Bacterial concentration (CFU/mL) is determined using the most probable number method (MPN). […] A serial 1:10 dilution will yield a bacterial concentration resolution of 1 log and the log reduction is determined by comparing the concentration of organisms in a treated sample to the concentration of organisms in untreated samples. […]
Using the HMARQ test described above, periodic peptides were generated and tested for Kill Activity. […] Units are expressed as ppm (μg/mL) needed for 3.5 log kill at 15 min or 24 hour and the results are shown below.

Staph. aureus ATCC 6538 = experiment: HMARQ biocidal kill activity; type: cell-based; conditions: Staph. aureus ATCC 6538 (gram+)
How it was run: (§1)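 Values are biocide ppm (μg/mL) needed for 3.5 log reduction relative to untreated controls after 15 min or 24 h exposure. Organisms were added to biocide-containing sample matrix (200–300 μL, mixed by vortex), then enumerated by most-probable-number 1:10 dilution series in TSB/resazurin.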

P. aeruginosa ATCC 15442 = experiment: HMARQ biocidal kill activity; type: cell-based; conditions: P. aeruginosa ATCC 15442 (gram−)
How it was run: as §1

C. albicans 10231 = type: cell-based
How it was run: (§2)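 Broth microdilution per NCCLS, adapted for fungi with Sabouraud Dextrose Broth; KFAK-repeat peptide multimers in two-fold dilutions from 1,000 to 1 μg/ml. Growth by OD620 after overnight incubation; IC50 by sigmoidal fit, in duplicate, repeated at least twice.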

Cr. Neoformans 32045 = type: cell-based
How it was run: as §2

HeLa cell line = experiment: HeLa MTS cellular reduction toxicity assay; type: cell-based; conditions: for TX50: 24 h, MTS
How it was run: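 TX50, the concentration giving 50% toxicity, obtained by sigmoidal fitting of relative toxicity versus peptide-free cells. Readout: MTS reduction with PMS, 1 h, A490. Peptides applied in 2-fold serial dilutions to 48 h HeLa monolayers for 24 h at 37 °C.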

Red blood cell toxicity = type: cell-based; conditions: red blood cells (RBC)
Red blood cells (RBC) = experiment: Red blood cell toxicity; type: cell-based
[2] = tested on: S. aureus (methicillin resistant) ATCC 33591
[3] = RBCs, concentration required for 50% toxicity, read-out: TX50
[4] = Table 3, P aeruginosa 10145, gram−
[5] = S. aureus (methicillin resistant) 33591, gram+

Substance	ppm needed for 3.5 log kill at 15 min (Staph. aureus ATCC 6538) [ppm]	ppm needed for 3.5 log kill at 24 hr (Staph. aureus ATCC 6538) [ppm]	ppm needed for 3.5 log kill at 15 min (P. aeruginosa ATCC 15442) [ppm]	ppm needed for 3.5 log kill at 24 hr (P. aeruginosa ATCC 15442) [ppm]	IC50 (C. albicans 10231; 10231) [µg/mL]	MIC (C. albicans 10231; 10231) [µg/mL]	IC50 (Cr. Neoformans 32045) [µg/mL]	MIC (Cr. Neoformans 32045) [µg/mL]	% kill at 500 μg/ml (HeLa cell line) [%]	TX50 (HeLa cell line) [µg/mL]	HC50 at 24 h (Red blood cell toxicity; [3]) [µg/mL]	% kill at 250 μg/ml (Red blood cells (RBC)) [%]	IC50 (E. coli ATCC 2592; ATCC 2592) [µg/mL]	MIC (E. coli ATCC 2592; ATCC 2592) [µg/mL]	IC50 (P. aeruginosa ATCC 10145; ATCC 10145) [µg/mL]	MIC (P. aeruginosa ATCC 10145; ATCC 10145) [µg/mL]	IC50 ([2]; ATCC 33591) [µg/mL]	MIC ([2]; ATCC 33591) [µg/mL]	also measured
LK LK (LKLK; Periodic Peptide) [LK(2)]	>500	16	>500	250															biocidal activity (statement) [1]: demonstrate biocidal activity
KFAFKFAFKFAFKFAFKFAFKFAFKFAF [KFAF (7), KFAF KFAF KFAF KFAF KFAF KFAF KFAF]	>500	125	63	63	>500	>500	67	125 to 250	76.8	>500	> 500	4	>1000	>1000	250	>250	>500	>500	
KFFKKFFKKFFKKFFKKFFKKFFKKFFK [KFFK (7), KFFK KFFK KFFK KFFK KFFK KFFK KFFK]	4	63	16	8					−0.5	30	12								IC50 (C. albicans 10231; yeast C. albicans 10231): 183 µg/mL; MIC (C. albicans 10231; yeast C. albicans 10231): 250 to 500 µg/mL; IC50 (Cr. Neoformans 32045; fungus Cr. Neoformans 32045): 55 µg/mL; MIC (Cr. Neoformans 32045; fungus Cr. Neoformans 32045): 62 to 125 µg/mL; % kill at 250 μg/ml (Red blood cells (RBC); RBCs, 250 μg/ml): 100%; IC50 (E. coli ATCC 2592; E. coli 2592, gram−): 63 µg/mL; MIC (E. coli ATCC 2592; E. coli 2592, gram−): >125 µg/mL; IC50 (P. aeruginosa ATCC 10145; [4]): 87 µg/mL; MIC (P. aeruginosa ATCC 10145; [4]): 125 µg/mL; IC50 [2, 5]: 133 µg/mL; MIC [2, 5]: >250 µg/mL
RFARRFARRFARRFARRFARRFARRFAR [RFAR (7), RFAR RFAR RFAR RFAR RFAR RFAR RFAR]	>500	4	63	125	172	250 to 500	45	62 to 125	12.4	106	20	100	8	32 to 62	20	62	31	125 to 250	
H-RFARRFARRFARRFARRFARRFAR-OH [RFAR (6), RFAR RFAR RFAR RFAR RFAR RFAR]	>500	8	31	31	114	125 to 250	35	62 to 125	22.1	159	176	72	12	31 to 62	25	32	15	31 to 62	
H-FAKKFAKKFAKKFAKKFAKKFAKK-OH [FAKK (6), FAKK FAKK FAKK FAKK FAKK FAKK]	>500	250	>500	16	110	125 to 250	7.6	16 to 32	28.3	359		7	11	17 to 32	21	62	108	>250	HC50 at 24 h (Red blood cell toxicity): > 500 µg/mL
LKKLLKKLLKKLLKKLLKKLLKKLLKKLLKKL [LKKL (8), LKKL LKKL LKKL LKKL LKKL LKKL LKKL LKKL]	>500	125	4	8	179	250 to 500	56	62 to 125	0.1	23	8	100	37	62 to 125	61	125	80	>250	
H-FKAFKAFKAFKAFKAFKAFKAFKA-OH [FKA (8), FKA FKA FKA FKA FKA FKA FKA FKA]	8	125	125	16	199	250 to 500	3.9	16 to 32	60.4	>500	> 500	10	7	16 to 32	19	25	74	>500	
H-LKLKLKLKLKLKLKLK-OH [LK (8), LK LK LK LK LK LK LK LK]	31	4	8	16	162	250 to 500	9.7	32 to 63	43.5	122	> 500	13	65	>125	125	130	56	125 to 250	
KFKKFKKFKKFKKFKKFK [KFK (6), KFK KFK KFK KFK KFK KFK]	>500		>500	125	164	250 to 500	33	40 to 62	77.8	>500	> 500	−7	39	62 to 125	74	125	322	>500	
